{"source": "patent US7723289B2", "about": "“PIF tetrapeptides” (BioIncept, LLC, priority 2003, dated 2010)", "tested_on": "PBMC", "assay": "Time-dependent cytokine secretion by PBMC (Table 3)", "format": "cell-based, human", "procedure": "Detailed time dependent and multiple controls were used the secretion of several cytokines by PBMC (IL-2, IL-5, IL-8, GM-CSF, IL-4, IL-10, TNF-α, IFN-γβ, IL-1 and IL-6) were measured. […] By 4 hours, sPIF-1 blocked TNF alpha with recovery by 24 hours. Also INFgamma secretion initiated only after 48 hours. […] Effects on cytokines was already noted at 0.7 nM. Similar effects were found also with other mitogens LPS and PHA when PIF-1 was tested.", "key": {"[1]": {"settings": "4 h post induction, substance alone"}, "[2]": {"settings": "4 h post induction, with MabCD3 coated wells"}, "[3]": {"settings": "24 h post induction, substance alone"}, "[4]": {"settings": "24 h post induction, with MabCD3 coated wells"}, "[5]": {"settings": "48 h post induction, substance alone"}, "[6]": {"settings": "48 h post induction, with MabCD3 coated wells"}, "[7]": {"settings": "96 h post induction, substance alone"}}, "data": [{"sequence": "MVRIKPGSANKPSDD [sPIF-1(15)]", "values": [{"measurement": "concentration at which effects on cytokines was already noted", "result": 0.7, "unit": "nM"}, {"measurement": "GM-CSF", "setting": "[1]", "result": 0, "unit": "pg/mL"}, {"measurement": "IFN-y", "setting": "[1]", "result": 0, "unit": "pg/mL"}, {"measurement": "IL-1β", "setting": "[1]", "result": 0, "unit": "pg/mL"}, {"measurement": "IL-2", "setting": "[1]", "result": 0, "unit": "pg/mL"}, {"measurement": "IL-4", "setting": "[1]", "result": 0, "unit": "pg/mL"}, {"measurement": "IL-5", "setting": "[1]", "result": 0, "unit": "pg/mL"}, {"measurement": "IL-6", "setting": "[1]", "result": 0, "unit": "pg/mL"}, {"measurement": "IL-8", "setting": "[1]", "result": 684.5, "unit": "pg/mL"}, {"measurement": "IL-10", "setting": "[1]", "result": 0, "unit": "pg/mL"}, {"measurement": "TNF-α", "setting": "[1]", "result": 0, "unit": "pg/mL"}, {"measurement": "GM-CSF", "setting": "[2]", "result": 0, "unit": "pg/mL"}, {"measurement": "IFN-y", "setting": "[2]", "result": 0, "unit": "pg/mL"}, {"measurement": "IL-1β", "setting": "[2]", "result": 0, "unit": "pg/mL"}, {"measurement": "IL-2", "setting": "[2]", "result": 0, "unit": "pg/mL"}, {"measurement": "IL-4", "setting": "[2]", "result": 0, "unit": "pg/mL"}, {"measurement": "IL-5", "setting": "[2]", "result": 0, "unit": "pg/mL"}, {"measurement": "IL-6", "setting": "[2]", "result": 17.5, "unit": "pg/mL"}, {"measurement": "IL-8", "setting": "[2]", "result": 514.8, "unit": "pg/mL"}, {"measurement": "IL-10", "setting": "[2]", "result": 0, "unit": "pg/mL"}, {"measurement": "TNF-α", "setting": "[2]", "result": 481.6, "unit": "pg/mL"}, {"measurement": "GM-CSF", "setting": "[3]", "result": 0, "unit": "pg/mL"}, {"measurement": "IFN-y", "setting": "[3]", "result": 0, "unit": "pg/mL"}, {"measurement": "IL-1β", "setting": "[3]", "result": 0, "unit": "pg/mL"}, {"measurement": "IL-2", "setting": "[3]", "result": 0, "unit": "pg/mL"}, {"measurement": "IL-4", "setting": "[3]", "result": 0, "unit": "pg/mL"}, {"measurement": "IL-5", "setting": "[3]", "result": 0, "unit": "pg/mL"}, {"measurement": "IL-6", "setting": "[3]", "result": 36.3, "unit": "pg/mL"}, {"measurement": "IL-8", "setting": "[3]", "result": ">6330", "unit": "pg/mL"}, {"measurement": "IL-10", "setting": "[3]", "result": 0, "unit": "pg/mL"}, {"measurement": "TNF-α", "setting": "[3]", "result": 38.0, "unit": "pg/mL"}, {"measurement": "GM-CSF", "setting": "[4]", "result": 58.9, "unit": "pg/mL"}, {"measurement": "IFN-y", "setting": "[4]", "result": 0, "unit": "pg/mL"}, {"measurement": "IL-1β", "setting": "[4]", "result": 2914.1, "unit": "pg/mL"}, {"measurement": "IL-2", "setting": "[4]", "result": 9045.7, "unit": "pg/mL"}, {"measurement": "IL-4", "setting": "[4]", "result": 58.9, "unit": "pg/mL"}, {"measurement": "IL-5", "setting": "[4]", "result": 397.5, "unit": "pg/mL"}, {"measurement": "IL-6", "setting": "[4]", "result": ">5200", "unit": "pg/mL"}, {"measurement": "IL-8", "setting": "[4]", "result": ">6330", "unit": "pg/mL"}, {"measurement": "IL-10", "setting": "[4]", "result": 1710.1, "unit": "pg/mL"}, {"measurement": "TNF-α", "setting": "[4]", "result": ">11390", "unit": "pg/mL"}, {"measurement": "GM-CSF", "setting": "[5]", "result": 0, "unit": "pg/mL"}, {"measurement": "IFN-y", "setting": "[5]", "result": 0, "unit": "pg/mL"}, {"measurement": "IL-1β", "setting": "[5]", "result": 0, "unit": "pg/mL"}, {"measurement": "IL-2", "setting": "[5]", "result": 0, "unit": "pg/mL"}, {"measurement": "IL-4", "setting": "[5]", "result": 0, "unit": "pg/mL"}, {"measurement": "IL-5", "setting": "[5]", "result": 0, "unit": "pg/mL"}, {"measurement": "IL-6", "setting": "[5]", "result": 0, "unit": "pg/mL"}, {"measurement": "IL-8", "setting": "[5]", "result": ">6330", "unit": "pg/mL"}, {"measurement": "IL-10", "setting": "[5]", "result": 0, "unit": "pg/mL"}, {"measurement": "TNF-α", "setting": "[5]", "result": 0, "unit": "pg/mL"}, {"measurement": "GM-CSF", "setting": "[6]", "result": 0, "unit": "pg/mL"}, {"measurement": "IFN-y", "setting": "[6]", "result": ">4740", "unit": "pg/mL"}, {"measurement": "IL-1β", "setting": "[6]", "result": 3295.4, "unit": "pg/mL"}, {"measurement": "IL-2", "setting": "[6]", "result": 6015.3, "unit": "pg/mL"}, {"measurement": "IL-4", "setting": "[6]", "result": 0, "unit": "pg/mL"}, {"measurement": "IL-5", "setting": "[6]", "result": 943.6, "unit": "pg/mL"}, {"measurement": "IL-6", "setting": "[6]", "result": ">5200", "unit": "pg/mL"}, {"measurement": "IL-8", "setting": "[6]", "result": ">6330", "unit": "pg/mL"}, {"measurement": "IL-10", "setting": "[6]", "result": 664.9, "unit": "pg/mL"}, {"measurement": "TNF-α", "setting": "[6]", "result": ">11390", "unit": "pg/mL"}, {"measurement": "GM-CSF", "setting": "[7]", "result": 0, "unit": "pg/mL"}, {"measurement": "IFN-y", "setting": "[7]", "result": 0, "unit": "pg/mL"}, {"measurement": "IL-1β", "setting": "[7]", "result": 0, "unit": "pg/mL"}, {"measurement": "IL-2", "setting": "[7]", "result": 0, "unit": "pg/mL"}, {"measurement": "IL-4", "setting": "[7]", "result": 0, "unit": "pg/mL"}, {"measurement": "IL-5", "setting": "[7]", "result": 0, "unit": "pg/mL"}]}]}
